# Legend:
# [1] = tested on: male MDD subjects; assay: Clinical study of creatine monohydrate in male MDD subjects (HAMD, BDI); assay type: in vivo, human; conditions: 5 g/day creatine monohydrate as a powder vs placebo, 0 to 8 weeks, FIGS. 1A and 1B
# Procedure: FIGS. 1A and 1B show clinical assessment data of male subjects having MDD upon treatment with placebo (grey lines) or creatine monohydrate (5 g/day, black lines) for 0 to 8 weeks. Clinical assessment was performed using the Hamilton Depressing Rating Scale (FIG. 1A) or the Beck Depression Inventory scale (FIG. 1B).
# A clinical study was performed to study the effect of creatine administration on male MDD subjects. A total of 6 male subjects (mean age of 42.7 years; age range 27 to 63) were enrolled in this study. Among the subjects, 5 subjects (mean age of 38.6 years; age range of 27 to 59) underwent at least one follow-up assessment. Three subjects received 5 g/day creatine monohydrate (as a powder), and two subjects received a placebo. The MDD symptoms of the subjects were assessed using the Hamilton Depression Rating Scale (HAMD) (FIG. 1A) or the Beck Depression Inventory (BDI) (FIG. 1B). The baseline HAMD total score for intention-to-treat sample was 30.4 (standard deviation of 5.1) and the baseline BDI total score was 31 (standard deviation of 11.3).
# [2] = tested on: adolescent MDD patients living at high altitude; assay: Clinical study of creatine monohydrate in adolescent MDD patients living at high altitude (CDRS); assay type: in vivo, human; conditions: adolescents with MDD, Salt Lake City (4,300 feet), 5 g/day creatine monohydrate as a powder, 1 to 10 weeks
# Procedure: Clinical assessment was performed using the Children's Depression Rating Scale (CDRS).
# A clinical study was performed to determine the effect of creatine on adolescent MDD patients living at high altitude (Salt Lake City; elevation of 4,300 feet). In this study, three adolescents diagnosed as having MDD and living at high altitude were administered 5 g/day of creatine monohydrate (as a powder). The subjects in the study were monitored using the Children's Depression Rating Scale (CDRS). The study was performed for 1 to 10 weeks.
compound,measurement,setting,value
"CN(CC(=O)O)C(=N)N.O [creatine, creatine monohydrate]","symptoms of MDD, Hamilton Depression Rating Scale (HAMD) and Beck Depression Inventory (BDI)",[1],reduces the symptoms of MDD in male subjects
same,symptoms of MDD in patients living at high altitude,[2],reduces the symptoms of MDD in patients living at high altitude
same,Children's Depression Rating Scale (CDRS) score,"[2]; after failing an SSRI trial, FIG. 2",reduction in CDRS score
